# According to patent publication US20250230193A1, “CYCLIC COMPOUND HAVING SELECTIVE KRAS INHIBITORY EFFECT ON HRAS AND NRAS” (CHUGAI SEIYAKU KABUSHIKI KAISHA, priority 2022, published 2025):
# Legend:
# [1] = target: GDP-bound NRAS wild-type protein (Homo sapiens, UniProt P01111); test: Binding to NRAS by surface plasmon resonance (SPR), Single Cycle Kinetics; conditions: KD ratio NRAS/KRAS, SPR, GDP-bound wild-type proteins
# [2] = target: GDP-bound HRAS wild-type protein (Homo sapiens, UniProt P01112); test: Binding to HRAS by surface plasmon resonance (SPR), Single Cycle Kinetics; conditions: KD ratio HRAS/KRAS, SPR, GDP-bound wild-type proteins
# Chain of GDP-bound HRAS wild-type protein (P01112 whole entry): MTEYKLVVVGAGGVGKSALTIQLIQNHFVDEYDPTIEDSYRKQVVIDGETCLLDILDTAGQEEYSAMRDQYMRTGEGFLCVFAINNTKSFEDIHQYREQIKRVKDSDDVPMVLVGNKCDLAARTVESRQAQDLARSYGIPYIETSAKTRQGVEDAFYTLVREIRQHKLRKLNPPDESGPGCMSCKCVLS
# Chain of GDP-bound NRAS wild-type protein (P01111 whole entry): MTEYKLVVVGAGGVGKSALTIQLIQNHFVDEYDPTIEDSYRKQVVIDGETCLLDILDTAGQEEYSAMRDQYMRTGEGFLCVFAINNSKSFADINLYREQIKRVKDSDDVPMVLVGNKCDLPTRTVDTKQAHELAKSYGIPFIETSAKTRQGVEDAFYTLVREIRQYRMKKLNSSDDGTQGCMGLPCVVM
SMILES,NRAS/KRAS (ratio of KD value with respect to GDP-bound NRAS wild-type protein to KD value with respect to KRAS) [1],HRAS/KRAS (ratio of KD value with respect to GDP-bound HRAS wild-type protein to KD value with respect to KRAS) [2]
CCC[C@H]1C(=O)N[C@@H]([C@@H](C)CC)C(=O)N(C)CC(=O)N(C)[C@H]2C/C=C\CCN(C2=O)[C@@H](Cc2ccc(C)cc2)C(=O)N(C)CC(=O)N[C@@H](CCc2ccc(C(F)(F)F)c(OC)c2)C(=O)N2C[C@H](OCC)C[C@H]2C(=O)NC2(CC(C)(C)C2)C(=O)N(C)[C@@H](CC(F)(F)F)C(=O)N(C)[C@H](C(=O)N(C)C)CC(=O)N1C [PP3007],A (a compound having 10 or more and less than 20 is denoted as A),A (a compound having 10 or more and less than 20 is denoted as A)
CCC[C@H]1C(=O)N[C@@H]([C@@H](C)CC)C(=O)N(C)CC(=O)N(C)[C@H]2C/C=C\CCN(C2=O)[C@@H](Cc2ccc(C)cc2)C(=O)N(C)CC(=O)N[C@@H](CCc2ccc(C(F)(F)F)c(OC)c2)C(=O)N2C[C@H](OCC)C[C@H]2C(=O)NC2(CC(C)(C)C2)C(=O)N(C)[C@@H](CC(C)C)C(=O)N(C)[C@H](C(=O)N(C)C)CC(=O)N1C [PP3008],A (a compound having 10 or more and less than 20 is denoted as A),A (a compound having 10 or more and less than 20 is denoted as A)
CCC[C@H]1C(=O)N[C@@H]([C@@H](C)CC)C(=O)N(C)CC(=O)N(C)[C@H]2C/C=C\CCN(C2=O)[C@@H](Cc2ccc(C)cc2)C(=O)N(C)CC(=O)N[C@@H](CCc2ccc(C(F)(F)F)c(OC)c2)C(=O)N2CC3(CC3)C[C@H]2C(=O)NC2(CC(C)(C)C2)C(=O)N(C)[C@@H](CC(C)(C)C)C(=O)N(C)[C@H](C(=O)N(C)C)CC(=O)N1C [PP3009],A (a compound having 10 or more and less than 20 is denoted as A),A (a compound having 10 or more and less than 20 is denoted as A)
CCC[C@H]1C(=O)N[C@@H](C2CCCC2)C(=O)N(C)CC(=O)N(C)[C@H]2C/C=C\CCN(C2=O)[C@@H](Cc2ccc(C)cc2)C(=O)N(C)CC(=O)N[C@@H](CCc2ccc(C(F)(F)F)c(OC)c2)C(=O)N2CC3(CC3)C[C@H]2C(=O)NC2(CC(C)(C)C2)C(=O)N(C)[C@@H](CC(C)(C)C)C(=O)N(C)[C@H](C(=O)N(C)C)CC(=O)N1C [PP3010],B (a compound having 3 or more and less than 10 is denoted as B),B (a compound having 3 or more and less than 10 is denoted as B)
CCC[C@H]1C(=O)N[C@@H]([C@@H](C)CC)C(=O)N(C)CC(=O)N(C)[C@H]2C/C=C\CCN(C2=O)[C@@H](Cc2ccc(C)cc2)C(=O)N(C)CC(=O)N[C@@H](CCc2ccc(C(F)(F)F)c(OC)c2)C(=O)N2CC3(CC3)C[C@H]2C(=O)NC2(CC(C)(C)C2)C(=O)N(C)[C@@H]([C@@H](C)CC)C(=O)N(C)[C@H](C(=O)N(C)C)CC(=O)N1C [PP3011],A (a compound having 10 or more and less than 20 is denoted as A),B (a compound having 3 or more and less than 10 is denoted as B)
CCC[C@H]1C(=O)N[C@@H]([C@@H](C)CC)C(=O)N(C)CC(=O)N(C)[C@H]2C/C=C\CCN(C2=O)[C@@H](Cc2ccc(C)cc2)C(=O)N(C)CC(=O)N[C@@H](CCc2ccc(C(F)(F)F)c(OC)c2)C(=O)N2CC3(CC3)C[C@H]2C(=O)NC2(CC(C)(C)C2)C(=O)N(C)[C@@H](CC(F)(F)F)C(=O)N(C)[C@H](C(=O)N(C)C)CC(=O)N1C [PP3012],A (a compound having 10 or more and less than 20 is denoted as A),A (a compound having 10 or more and less than 20 is denoted as A)
CCC[C@H]1C(=O)N[C@@H]([C@@H](C)CC)C(=O)N(C)CC(=O)N(C)[C@H]2C/C=C\CCN(C2=O)[C@@H](Cc2ccc(C)cc2)C(=O)N(C)CC(=O)N[C@@H](CCc2ccc(C(F)(F)F)c(OC)c2)C(=O)N2CC3(CC3)C[C@H]2C(=O)NC2(CC(C)(C)C2)C(=O)N(C)[C@@H](CC(C)C)C(=O)N(C)[C@H](C(=O)N(C)C)CC(=O)N1C [PP3013],AA (a compound having 20 or more is denoted as AA),B (a compound having 3 or more and less than 10 is denoted as B)
CCC[C@H]1C(=O)N[C@@H](C2CCCCC2)C(=O)N(C)CC(=O)N(C)[C@H]2C/C=C\CCN(C2=O)[C@@H](Cc2ccc(C(F)(F)F)cc2)C(=O)N(C)CC(=O)N[C@@H](CCc2ccc(C(F)(F)F)c(Cl)c2)C(=O)N2C[C@H](OCC)C[C@H]2C(=O)NC2(CC(C)(C)C2)C(=O)N(C)[C@@H](CC(C)(C)C)C(=O)N(C)[C@H](C(=O)N(C)C)CC(=O)N1C [PP3014],AA (a compound having 20 or more is denoted as AA),A (a compound having 10 or more and less than 20 is denoted as A)
CCC[C@H]1C(=O)N[C@@H](C2CCCCC2)C(=O)N(C)CC(=O)N(C)[C@H]2C/C=C\CCN(C2=O)[C@@H](Cc2ccc(C(F)(F)F)cc2)C(=O)N(C)CC(=O)N[C@@H](CCc2ccc(C(F)(F)F)c(Cl)c2)C(=O)N2C[C@H](OCC)C[C@H]2C(=O)NC2(CC(C)(C)C2)C(=O)N(C)[C@@H]([C@@H](C)CC)C(=O)N(C)[C@H](C(=O)N(C)C)CC(=O)N1C [PP3015],AA (a compound having 20 or more is denoted as AA),A (a compound having 10 or more and less than 20 is denoted as A)
CCC[C@H]1C(=O)N[C@@H](C2CCCCC2)C(=O)N(C)CC(=O)N(C)[C@H]2C/C=C\CCN(C2=O)[C@@H](Cc2ccc(C(F)(F)F)cc2)C(=O)N(C)CC(=O)N[C@@H](CCc2ccc(C(F)(F)F)c(Cl)c2)C(=O)N2C[C@H](OCC)C[C@H]2C(=O)NC2(CC(C)(C)C2)C(=O)N(C)[C@@H](CC(C)C)C(=O)N(C)[C@H](C(=O)N(C)C)CC(=O)N1C [PP3017],AA (a compound having 20 or more is denoted as AA),A (a compound having 10 or more and less than 20 is denoted as A)
CCC[C@H]1C(=O)N[C@@H](C2CCCCC2)C(=O)N(C)CC(=O)N(C)[C@H]2C/C=C\CCN(C2=O)[C@@H](Cc2ccc(C)cc2)C(=O)N(C)CC(=O)N[C@@H](CCc2ccc(C(F)(F)F)c(Cl)c2)C(=O)N2C[C@H](OCC)C[C@H]2C(=O)NC2(CC(C)(C)C2)C(=O)N(C)[C@@H](CC(C)(C)C)C(=O)N(C)[C@H](C(=O)N(C)C)CC(=O)N1C [PP3018],A (a compound having 10 or more and less than 20 is denoted as A),B (a compound having 3 or more and less than 10 is denoted as B)
CCC[C@H]1C(=O)N[C@@H](C2CCCCC2)C(=O)N(C)CC(=O)N(C)[C@H]2C/C=C\CCN(C2=O)[C@@H](Cc2ccc(C)cc2)C(=O)N(C)CC(=O)N[C@@H](CCc2ccc(C(F)(F)F)c(Cl)c2)C(=O)N2C[C@H](OCC)C[C@H]2C(=O)NC2(CC(C)(C)C2)C(=O)N(C)[C@@H](CC(C)C)C(=O)N(C)[C@H](C(=O)N(C)C)CC(=O)N1C [PP3021],AA (a compound having 20 or more is denoted as AA),A (a compound having 10 or more and less than 20 is denoted as A)
CCC[C@H]1C(=O)N[C@@H](C2CCOCC2)C(=O)N(C)CC(=O)N(C)[C@H]2C/C=C\CCN(C2=O)[C@@H](Cc2ccc(C(F)(F)F)cc2)C(=O)N(C)CC(=O)N[C@@H](CCc2ccc(C(F)(F)F)c(Cl)c2)C(=O)N2C[C@H](OCC)C[C@H]2C(=O)NC2(CC(C)(C)C2)C(=O)N(C)[C@@H](CC(C)(C)C)C(=O)N(C)[C@H](C(=O)N(C)C)CC(=O)N1C [PP3022],AA (a compound having 20 or more is denoted as AA),A (a compound having 10 or more and less than 20 is denoted as A)
CCC[C@H]1C(=O)N[C@@H](C2CCOCC2)C(=O)N(C)CC(=O)N(C)[C@H]2C/C=C\CCN(C2=O)[C@@H](Cc2ccc(C)cc2)C(=O)N(C)CC(=O)N[C@@H](CCc2ccc(C(F)(F)F)c(Cl)c2)C(=O)N2C[C@H](OCC)C[C@H]2C(=O)NC2(CC(C)(C)C2)C(=O)N(C)[C@@H](CC(C)(C)C)C(=O)N(C)[C@H](C(=O)N(C)C)CC(=O)N1C [PP3026],A (a compound having 10 or more and less than 20 is denoted as A),A (a compound having 10 or more and less than 20 is denoted as A)
CCC[C@H]1C(=O)N[C@@H]([C@@H](C)CC)C(=O)N(C)CC(=O)N(C)[C@H]2C/C=C\CCN(C2=O)[C@@H](Cc2ccc(C(F)(F)F)cc2)C(=O)N(C)CC(=O)N[C@@H](CCc2ccc(Cl)c(Cl)c2)C(=O)N2CCCCC[C@H]2C(=O)NC2(CC(C)(C)C2)C(=O)N(C)[C@@H](C(CC)CC)C(=O)N(C)[C@H](C(=O)N(C)C)CC(=O)N1C [PP3031],AA (a compound having 20 or more is denoted as AA),A (a compound having 10 or more and less than 20 is denoted as A)
